From patent US20030139609A1, “Aziridinyl quinone antitumor agents based on indoles and cyclopent[b]indoles” (priority 2001, published 2003)

Key:
[1] = biological target: human DT-diaphorase (from the non-small cell lung NCI-H460 cell line) (Homo sapiens, UniProt P15559); assay: DT-diaphorase substrate kinetics (recombinant enzyme, anaerobic, Lineweaver-Burke); type: biochemical
Text: Listed in Tables 1-4 are the human DT-diaphorase kinetic parameters for Series 1-9, along with the DNA alkylation percentages. These parameters include the apparent dissociation constant KM, the apparent maximal velocity VMAX, and the substrate specificity, VMAX/KM. The designation “apparent” refers to the present of productive and nonproductive constants in KM and VMAX. {Fersht, A. R., The Hydrogen Bond in Molecular Recognition Trends, Biochem. Sci., 1987, 12, 301-304} These constants cancel in the ratio VMAX/KM, which is the best parameter to compare substrates. Human DT-diaphorase (from the non-small cell lung NCI-H460 cell line) {Beall, H. D., Mulcahy, R. T., Siegel, D., Traver, R D., Gibson, N. W., and Ross, D., Metabolism of Bioreductive Antitumor Compounds by Purified Rat and Human DT-Diaphorase Cancer Res., 1994, 54, 3196-3201 } was used to obtain these kinetic parameters. This enzyme is the same as that present in other human tissues, cancerous or otherwise.
Kinetics Studies using Recombinant DT-diaphorase. Kinetics studies were carried out in 0.05 M pH 7.4 Tris buffer under anaerobic conditions, employing Thunberg cuvettes. […] To calculate Vmax, the value of □□ must be obtained. □□ was calculated from the initial and final absorbances for complete quinone reduction; all values are between 8000 to 9000 M^−1 cm^−1. […]

600 bp calf thymus DNA = assay: DNA reductive alkylation by catalytically reduced aziridinyl quinones; type: biochemical
Protocol: DNA Alkylation Screening of Series 1-9. The extent of DNA reductive alkylation was determined by catalytic reduction of the aziridinyl quinones in the presence of 600 bp calf thymus DNA. Oxidative workup afforded DNA colored blue as a result of the aminoquinone chromophore. […] The anaerobic conditions employed for DNA reductive alkylation assays is not meant to mimic the environment of tumor cells. These conditions do permit an accurate assessment of the structural requirements for DNA alkylation by the hydroquinone species. To be sure, agents incapable of akylating DNA under these ideal conditions will not do so in the typical cellular environment.
Alkylation of DNA by Reduced Indoloquinones. To a mixture of 1-2 mg of sonicated (600 bp) calf thymus DNA in 2.0 mL of 0.05 M of pH 7.4 tris buffer and 2 mg of Pd on carbon was added a five-to-one base pair equivalent amount of the indoloquinone dissolved in 0.5 mL of dimethylsulfoxide. The resulting solution was degassed under argon for 30 min., after which the mixture was purged with H2 for 10 min. The solution was then purged with argon for 10 min. and placed in a 30° C. bath for 24 h. The reaction was opened to the air and the catalyst was removed with a Millex-PF […] syringe filter. The filtrate was adjusted to 0.3 M acetate with a 3 M stock solution of pH 5.1 acetate and then diluted with two volumes of ethanol. The mixture was chilled at −20° C. for 12 h and the DNA pellet collected by centrifuging at 12,000 g for 20 min. The pellet was redissolved in water and then precipitated and centrifuged again. The resulting blue or red pellet was suspended in ethanol, centrifuged, and dried. The dried pellet was weighed and dissolved in 1 mL of double distilled water resulting in a clear colored solution with […]max˜550 nm, □˜750 M^−1 cm^−1. This is the chromophore of the aminoquinone resulting from nucleophile-mediated opening of the aziridine ring. Model 2′-chloroethyl aminoquinones for extinction coefficient determination were prepared by treatment of the indoloquinone with HCl. {Skibo, E. B. and Xing, C., Chemistry and DNA Alkylation Reactions of Aziridinyl Quinones: Development of an Efficient Alkylating Agent of the Phosphate Backbone, Biochemistry, 1998, 37, 15199-15213}.

[2] = test system: NCI-H460 non-small-lung cancer cell line; assay: NCI In Vitro Cell Line Screening, NSC H460 cell line; type: cell-based
Text: Cytotoxic and Cytostatic Screening of Series 1-9.

[3] = test system: National Cancer Institute 60-cell line; assay: NCI 60-cell line in vitro screen (average cytotoxicity and cancer specificity)
Protocol: Cytotoxic and Cytostatic Screening of Series 1-9. […] The cytostatic parameters include GI50 and TGI, which are the concentrations of drug required for 50% growth inhibition and total growth inhibition, respectively. The cytotoxic parameter is the LC50, which is the concentration required for 50% cell kill.
4. […] Cancer specificity is measured from the ± value under the “Average Log LC50 60-Cell Line” heading of Table 5. A ± value greater than 2 indicates a greater than 100-fold higher/lower cytotoxicity in some histological cancer types compared to the mean cytotoxicity.
The DT-diaphorase levels in the National Cancer Institute 60-cell line in vitro screen have been determined and correlated with the cytotoxicity of antitumor agents activated by 2-electron reduction. {Fitzsimmons, S. A., Workman, P., Grever, M., Paull, K., Camalier, R., and Lewis, A. D., Reductase Enzyme Expression Across the National Cancer Institute Tumor Cell Line Panel: Correlation with Sensitivity To Mitomycin C and EO9, J. Natl. Cancer Inst., 1996, 88, 259-69}. Sensitive cancers usually include NSC lung and colon cancers (and to a lesser extent CNS, melanoma, and renal cancers) by virtue of their elevated DT-diaphorase levels.

Sequence of human DT-diaphorase (from the non-small cell lung NCI-H460 cell line) (P15559 whole entry): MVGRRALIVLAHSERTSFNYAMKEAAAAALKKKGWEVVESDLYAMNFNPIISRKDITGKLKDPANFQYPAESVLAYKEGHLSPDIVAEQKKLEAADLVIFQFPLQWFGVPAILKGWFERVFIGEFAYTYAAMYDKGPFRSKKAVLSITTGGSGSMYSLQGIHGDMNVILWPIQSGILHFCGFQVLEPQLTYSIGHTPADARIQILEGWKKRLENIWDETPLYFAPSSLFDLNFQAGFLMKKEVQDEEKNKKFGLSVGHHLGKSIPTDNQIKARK

Structure (SMILES): CCOC(=O)c1[nH]c2c(c1COC(C)=O)C(=O)C(N1CC1)=CC2=O [Compound 6d, 3-Acetoxymethyl-5-aziridinyl-2-ethoxycarbonylindole-4,7-dione]
- DT-diaphorase specificity [1]: 0.0072 M⁻¹ s⁻¹
- % of DNA bases reductively activated (600 bp calf thymus DNA): 91.2%
- DNA alkylation (in words) (600 bp calf thymus DNA): high DNA alkylation percentages
- DNA alkylation percentage (600 bp calf thymus DNA; catalytic reduction, anaerobic, pH 7.4 tris buffer, 30° C., 24 h, absorbance at 550 nm): 91.2%
- GI50 ([2]; Homo sapiens, NCI-H460, concentration for 50% growth inhibition, read-out: Log GI50 NSC H460 (converted)): 37.2 nM
- CC50 ([2]; Homo sapiens, NCI-H460, read-out: Log LC50 NSC H460, concentration for 50% cell kill (converted)): 603 nM
- Log TGI NSC H460 ([2]; concentration for total growth inhibition): −6.77
- ± value of Average Log LC50 60-Cell Line [3]: ~1
- Average Log LC50 60-Cell Line ([3]; mean over 60 cell lines, ± value measures cancer specificity): −5.62 ± 1.05
